Data: PubChem BioAssay (NCI)
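Five compound concentrations were applied to cells in 96-well plates for 48 hours; endpoints were derived by simple linear interpolation of the resulting dose-response curve. TGI is the concentration that stops growth completely.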

Assays:
Assay in all cases: NCI tumour cell line growth inhibition, 48 h
OVCAR-3 ovarian = test system: OVCAR-3 ovarian
HS 578T breast = test system: HS 578T breast
HCT-15 colon = test system: HCT-15 colon
SN12C renal = test system: SN12C renal
RPMI-8226 leukemia = test system: RPMI-8226 leukemia
COLO 205 colon = test system: COLO 205 colon
SF-268 CNS = test system: SF-268 CNS
UO-31 renal = test system: UO-31 renal
HOP-62 NSCLC = test system: HOP-62 NSCLC
NCI-H226 lung = test system: NCI-H226 lung
MCF7 breast = test system: MCF7 breast
EKVX NSCLC = test system: EKVX NSCLC
UACC-62 melanoma = test system: UACC-62 melanoma
A549 NSCLC = test system: A549 NSCLC
HCC-2998 colon = test system: HCC-2998 colon
HT29 colon = test system: HT29 colon
ACHN renal = test system: ACHN renal
T-47D breast = test system: T-47D breast
IGROV1 ovarian = test system: IGROV1 ovarian
OVCAR-8 ovarian = test system: OVCAR-8 ovarian
UACC-257 melanoma = test system: UACC-257 melanoma
OVCAR-4 ovarian = test system: OVCAR-4 ovarian
HCT-116 colon = test system: HCT-116 colon
HL-60(TB) leukemia = test system: HL-60(TB) leukemia
NCI-H23 lung = test system: NCI-H23 lung
SF-295 CNS = test system: SF-295 CNS
OVCAR-5 ovarian = test system: OVCAR-5 ovarian
U251 CNS = test system: U251 CNS
786-0 renal = test system: 786-0 renal
SF-539 CNS = test system: SF-539 CNS
MDA-MB-435 = test system: MDA-MB-435
M14 melanoma = test system: M14 melanoma
SNB-19 CNS = test system: SNB-19 CNS
TK-10 renal = test system: TK-10 renal
KM12 colon = test system: KM12 colon
SW-620 colon = test system: SW-620 colon
SK-MEL-28 melanoma = test system: SK-MEL-28 melanoma
MDA-MB-231 breast = test system: MDA-MB-231 breast
RXF 393 renal = test system: RXF 393 renal
A498 renal = test system: A498 renal
MOLT-4 leukemia = test system: MOLT-4 leukemia
NCI-H522 lung = test system: NCI-H522 lung
DU-145 prostate = test system: DU-145 prostate
SNB-75 CNS = test system: SNB-75 CNS
K-562 leukemia = test system: K-562 leukemia
CAKI-1 renal = test system: CAKI-1 renal
PC-3 prostate = test system: PC-3 prostate
NCI-H460 lung = test system: NCI-H460 lung
CCRF-CEM leukemia = test system: CCRF-CEM leukemia
SK-MEL-2 melanoma = test system: SK-MEL-2 melanoma
LOX IMVI melanoma = test system: LOX IMVI melanoma
HOP-92 NSCLC = test system: HOP-92 NSCLC
SK-OV-3 ovarian = test system: SK-OV-3 ovarian
BT-549 breast = test system: BT-549 breast
SK-MEL-5 melanoma = test system: SK-MEL-5 melanoma
NCI/ADR-RES ovarian = test system: NCI/ADR-RES ovarian

Question: How did the TGI (OVCAR-3 ovarian) turn out when `CCCCCCCCC[C@@H]1C[C@@H]2CCC3C(C(=O)OCCCCNC(=O)OCc4ccccc4)=C(C)NC(=N1)N32` (stereo partly specified) was run?
Answer: 14.9 µM

Question: And the TGI (HS 578T breast)?
Answer: 5.48 µM

Question: And the TGI (HCT-15 colon)?
Answer: 8.06 µM

Question: And the TGI (SN12C renal)?
Answer: 10.7 µM

Question: And the TGI (RPMI-8226 leukemia)?
Answer: 4.44 µM

Question: What about the TGI (COLO 205 colon) of the same compound?
Answer: 2970 nM

Question: And the TGI (SF-268 CNS)?
Answer: 6.66 µM

Question: What about the TGI (UO-31 renal) of the same compound?
Answer: 13.7 µM

Question: And the TGI (HOP-62 NSCLC)?
Answer: 10.3 µM

Question: What about the TGI (NCI-H226 lung) of the same compound?
Answer: 11.6 µM

Question: What about the TGI (MCF7 breast) of the same compound?
Answer: 4.72 µM

Question: And the TGI (EKVX NSCLC)?
Answer: 7.76 µM

Question: And the TGI (UACC-62 melanoma)?
Answer: 13.7 µM

Question: And the TGI (A549 NSCLC)?
Answer: 23.3 µM

Question: And the TGI (HCC-2998 colon)?
Answer: 11.1 µM

Question: And the TGI (HT29 colon)?
Answer: 12.9 µM

Question: What about the TGI (ACHN renal) of the same compound?
Answer: 12.2 µM

Question: What about the TGI (T-47D breast) of the same compound?
Answer: 10.6 µM

Question: And the TGI (IGROV1 ovarian)?
Answer: 6.11 µM

Question: And the TGI (OVCAR-8 ovarian)?
Answer: 8.7 µM

Question: What about the TGI (UACC-257 melanoma) of the same compound?
Answer: 12.2 µM

Question: What about the TGI (OVCAR-4 ovarian) of the same compound?
Answer: 21.3 µM

Question: What about the TGI (HCT-116 colon) of the same compound?
Answer: 10 µM

Question: And the TGI (HL-60(TB) leukemia)?
Answer: 4.01 µM

Question: What about the TGI (NCI-H23 lung) of the same compound?
Answer: 6.78 µM

Question: And the TGI (SF-295 CNS)?
Answer: 11.2 µM

Question: And the TGI (OVCAR-5 ovarian)?
Answer: 21.4 µM

Question: What about the TGI (U251 CNS) of the same compound?
Answer: 10.3 µM

Question: What about the TGI (786-0 renal) of the same compound?
Answer: 3.2 µM

Question: What about the TGI (SF-539 CNS) of the same compound?
Answer: 14.4 µM

Question: What about the TGI (MDA-MB-435) of the same compound?
Answer: 9.82 µM

Question: And the TGI (M14 melanoma)?
Answer: 6.97 µM

Question: And the TGI (SNB-19 CNS)?
Answer: 29.4 µM

Question: What about the TGI (TK-10 renal) of the same compound?
Answer: 17.7 µM

Question: And the TGI (KM12 colon)?
Answer: 13.7 µM

Question: What about the TGI (SW-620 colon) of the same compound?
Answer: 14.2 µM

Question: What about the TGI (SK-MEL-28 melanoma) of the same compound?
Answer: 13.5 µM

Question: And the TGI (MDA-MB-231 breast)?
Answer: 6.09 µM

Question: What about the TGI (RXF 393 renal) of the same compound?
Answer: 7.34 µM

Question: What about the TGI (A498 renal) of the same compound?
Answer: 18.9 µM

Question: What about the TGI (MOLT-4 leukemia) of the same compound?
Answer: 6.41 µM

Question: What about the TGI (NCI-H522 lung) of the same compound?
Answer: 6.01 µM

Question: And the TGI (DU-145 prostate)?
Answer: 21 µM

Question: And the TGI (SNB-75 CNS)?
Answer: 16.9 µM

Question: And the TGI (K-562 leukemia)?
Answer: 3.83 µM

Question: And the TGI (CAKI-1 renal)?
Answer: 14.9 µM

Question: And the TGI (PC-3 prostate)?
Answer: 7.32 µM

Question: And the TGI (NCI-H460 lung)?
Answer: 13.3 µM

Question: And the TGI (CCRF-CEM leukemia)?
Answer: 8.93 µM

Question: What about the TGI (SK-MEL-2 melanoma) of the same compound?
Answer: 4.84 µM

Question: And the TGI (LOX IMVI melanoma)?
Answer: 4.31 µM

Question: What about the TGI (HOP-92 NSCLC) of the same compound?
Answer: 7.08 µM

Question: And the TGI (SK-OV-3 ovarian)?
Answer: 8.74 µM

Question: What about the TGI (BT-549 breast) of the same compound?
Answer: 12.6 µM

Question: And the TGI (SK-MEL-5 melanoma)?
Answer: 2930 nM

Question: And the TGI (NCI/ADR-RES ovarian)?
Answer: 7 µM
